Data on ten compounds can be found in patent publication US5955505A, “Glutamic acid receptor agonist” (Nippon Suisan Kaisha, Ltd., priority 1995, dated 1999).

“Also recorded” adds a separate entry of the source.

For data set [1], the system named is non-NMDA receptors. In words: Potentiation of AMPA- or kainic acid-elicited membrane current in Xenopus oocytes injected with rat hippocampus poly(A)+ RNA (two-electrode voltage clamp). The protocol:
By use of an improved method of Masu's Xenopus oocyte expression system [Nature 329,836 (1987)] an electrophysiological analysis was conducted.
(1) Preparation of poly(A)^+ RNA isolated from a rat hippocampus.
A hippocampus region was isolated from a rat and homogenized in the presence of […] and total RNA was extracted from the hippocampus by means of the ultracentrifugating method utilizing cesium chloride. Poly(A)^+ RNA was refined from the obtained RNA by use of oligo dT cellulose column.
(2) Expression of protein in Xenopus oocytes
(§1) 50 nl of the poly(A)^+ RNA (1 μg/μl) isolated was injected into an oocyte by a micromanipulator and the oocytes were cultured in a Barth's medium (88 mM NaCl, 1 mM KCl, 2.4 mM NaHCO3, 0.3 mM Ca(NO3)2, 0.41 mM CaCl2, 0.82 mM MgSO4, 10 μg/ml sodium penicillin, 10 μg/ml streptomycin sulfate, and 15 mM HEPES) at 19° C. for three to four days and used for measurement.
(3) Electrophysiological and pharmacological experiment by two-electrodes voltage clamp method.
(§2) The above-mentioned oocyte was set in a chamber under perfusion of frog Ringer's solution (120 mM NaCl, 2 mM KCl, 1.8 mM CaCl2, and 5 mM HEPES, pH 7.4) and microelectrodes were inserted into oocytes and the membrane potential was fixed at -70 mV. Subsequently, another frog Ringer's solution in which AMPA (100 μM) or kainate(KA) (100 μM) both of which are agonists for non-NMDA receptors was dissolved was substituted for the original Ringer's solution and then an inward membrane current was measured.
The membrane potential was fixed at -70 mV. The response was defined as one which was generated on the specimen under perfusion of frog Ringer's solution in which AMPA or kainic acid both of which are agonists for non-NMDA receptors was dissolved until a final concentration of 100 μM. The responses are shown as relative values which were measured on the oocytes under perfusion of frog Ringer's solution in which the compound of the invention and anilacetum which is a potentiator for non-NMDA receptors were dissolved until a concentration of 50 μM with AMPA or kainic acid.

The subject of data set [2] is non-NMDA receptors. The data set can be described thus: Inward membrane current elicited by the compound alone in Xenopus oocytes injected with rat hippocampus poly(A)+ RNA (agonist action). It counts as cell-based. Conditions: antagonist 1 μM. The protocol: as §1, §2
Where [3] appears, read: 50 μM test substance with 100 μM AMPA, membrane potential -70 mV, control (AMPA alone) = 1.
The mark [4] stands for this setting: 50 μM test substance with 100 μM kainic acid, membrane potential -70 mV, control (kainic acid alone) = 1.

As for `N#Cc1cc2[nH]c(=O)c(=O)[nH]c2cc1[N+](=O)[O-]` [CNQX, reference compound], in the data set with non-NMDA receptors [1] (antagonist 1 μM, -70 mV), the “Inhibition of inward membrane current elicited by AMPA (100 μM) or kainate (100 μM)” value was “inhibited”. The “Inhibition of inward membrane current elicited by the compound of the invention alone” value in the data set with non-NMDA receptors [2] was “inhibited”.
As to `NC(=O)COc1c(F)cc(SCCNS(=O)(=O)c2ccccc2)cc1F` [Compound 139, 4-[2-(Phenylsulfonylamino)ethylthio]-2,6-difluorophenoxyacetamide], the “Potentiation of the non-NMDA receptor response (membrane current elicited by kainic acid and AMPA), in words” value in the data set on non-NMDA receptors [1] (50 μM compound with 100 μM AMPA or kainic acid) is “definitely active; also recorded: especially strong action”. For the same compound, in the data set with non-NMDA receptors [1] (setting [3]), the “Potentiation (relative values with a control as 1), AMPA” value amounted to 23.2. Besides, the “Potentiation (relative values with a control as 1), kainic acid” value with non-NMDA receptors [1] (setting [4]) was 2.8.
Turning to `CN(C)C(=O)COc1ccc(SCCNS(=O)(=O)c2ccccc2)cc1F` [Compound 143, N,N-Dimethyl-4-[2-(phenylsulfonylamino)ethylthio]-2-fluorophenoxyacetamide], in the data set with non-NMDA receptors [1] (xenopus oocytes, 50 µM), the “Potentiation (relative values with a control as 1), AMPA” value is 1.4 and the “Potentiation (relative values with a control as 1), kainic acid” value was 1.6.
As for `C[C@]12N[C@H](Cc3ccccc31)c1ccccc12` [MK-801], in the data set on non-NMDA receptors [2], the “Inhibition of inward membrane current elicited by the compound of the invention alone” value is “not inhibited”.
In the case of `NC(=O)COc1ccc(SCCNS(=O)(=O)c2ccccc2)cc1F` [Compound 142, 4-[2-(Phenylsulfonylamino)ethylthio]-2-fluorophenoxyacetamide], in the data set with non-NMDA receptors [1] (xenopus oocytes, 50 µM), the “Potentiation (relative values with a control as 1), AMPA” value is 1.6 and the “Potentiation (relative values with a control as 1), kainic acid” value was found to be 1.5.
As to `COC(=O)COc1c(F)cc(SCCNS(=O)(=O)c2ccc(Cl)cc2)cc1F` [Compound 128, methyl 4-[2-(4-chlorophenylsulfonylamino)ethylthio]-2,6-difluorophenoxyacetate], in the data set on non-NMDA receptors [1] (xenopus oocytes, 50 µM), the “Potentiation (relative values with a control as 1), AMPA” value came to 1.5 and the “Potentiation (relative values with a control as 1), kainic acid” value is on record as 1.6.
On to `O=C(O)COc1ccc(SCCNS(=O)(=O)c2ccc(Br)cc2)cc1F` [Compound 106, 2-Fluoro-4-[2-(4-bromophenylsulfonylamino)ethylthio]phenoxyacetic acid], for which, in the data set with non-NMDA receptors [1] (xenopus oocytes, 50 µM), the “Potentiation (relative values with a control as 1), AMPA” value turned out to be 1.4 and the “Potentiation (relative values with a control as 1), kainic acid” value turned out to be 1.5.
Taken in the same sequence, the figures for `O=C(O)COc1c(F)cc(SCCNS(=O)(=O)c2ccc(Cl)cc2)cc1F` [Compound 68, 2,6-Difluoro-4-[2-(4-chlorophenylsulfonylamino)ethylthio]phenoxyacetic acid] were 1.5 and 1.6.
Taken in the same sequence, the figures for `NC(=O)Cc1ccc(SCCNS(=O)(=O)c2ccccc2)cc1` [Compound 145, 4-[2-(phenylsulfonylamino)ethylthio]phenylacetamide] were 1.3 and 1.5.
Consider `COc1ccc(C(=O)N2CCCC2=O)cc1` [anilacetum, reference compound], for which the “Potentiation (relative values with a control as 1), AMPA” value in the data set with non-NMDA receptors [1] (setting [3]) is recorded as “does not potentiate”; with non-NMDA receptors [1] (50 μM test substance with 100 μM AMPA, membrane potential -70 mV, control (AMPA alone) = 1, 50 µM) it was 1. Also, the “Potentiation (relative values with a control as 1), kainic acid” value in the data set with non-NMDA receptors [1] (setting [4]) was “does not potentiate”; in the data set on non-NMDA receptors [1] (50 μM test substance with 100 μM kainic acid, membrane potential -70 mV, control (kainic acid alone) = 1, 50 µM), 1. Also, in the data set on non-NMDA receptors [1] (1 mM test substance), the “Effect on response elicited by AMPA” value is recorded as “doubles”. Further, in the data set on non-NMDA receptors [1] (1 mM test substance (20 times in concentration)), the “Effect on response elicited by kainic acid” value is reported as “does not affect”.
